# Reference: a polymer gas permeability compilation
Compound,CH4 permeability [Barrer],CO2 permeability [Barrer],N2 permeability [Barrer],O2 permeability [Barrer],H2 permeability [Barrer]
*c1cccc(-c2nnc(*)n2-c2ccccc2)c1 (repeat unit),0.0491,2.7,0.09,0.52,–
*CC(*)c1ccncc1 (repeat unit),0.14,3.31,0.13,0.84,12.6
*CC(*)(C)C(=O)OCCOCCOCC (repeat unit),11.4,133,3.6,11.4,–
*=CC1CC(C=*)C2C(=O)N(C3CCCCC3)C(=O)C12 (repeat unit),0.8,13.7,0.52,2.21,16.1
